Assay results taken from patent US20260071117A1, “FUNABLE FLUORESCENT COMPOUNDS AND USES THEREOF” (Arizona Board of Regents on Behalf of the University of …, priority 2021, published 2026).
Like-named read-outs stand apart in the source and are kept apart here.

Assays:
[1] = Absorbance and fluorescence measurements (excitation maximum, emission maximum, quantum yield vs coumarin 151); type: physicochemical; parameters: key to Quantum Yield: fraction relative to coumarin 151 in ethanol standard; settings: for λex: absorbance/excitation maximum; for λem: emission maximum
From the text: All reagents and solvents were acquired from commercially available suppliers and used without further purification. Methanol(dried on molecular sieves-Acroseal) was obtained from Acros. […] 1H and 13C NMR spectra were obtained on a Bruker NMR spectrometer at 500/400 and 125/100 MHz respectively. The data is reported as follows: chemical shift in ppm (δ), multiplicity (s=singlet, d=doublet, dd=doublet of doublets, t=triplet, dt=doublet of triplets, td=triplet of doublets, q=quartet, p=pentet, m=multiplet). Coupling constants are reported in Hertz (Hz) and were automatically generated using known NMR analyzer software (MestReNova), these were then subsequently curated. High-resolution mass spectra were obtained using the positive ESI method for all the compounds, obtained in an Ion Cyclotron Resonance (ICR) spectrometer. Absorbance spectra were obtained using an Agilent 8453 UV-visible spectroscopy system. Fluorescence was measured on a Varian (Agilent) Cary Eclipse Fluorimeter. Quantum yield measurements were calculated and reported using coumarin 151 in ethanol as a standard.^1 Fluorescence scans were obtained using a 2.5 mm slit width unless otherwise noted.
The fluorescence was also measured in different solvents to examine the solvent effects.

[2] = previously published amine, comparison in Example I; cited from earlier work
[3] = coumarin 151 in ethanol as standard, 2.5 mm slit width, measurements run with methanol
[4] = 2.5 mm slit width, measurements run with methanol
[5] = 10 mm slit, coumarin 151 in ethanol as standard

Compound | λex ([1]; measurements run with methanol) [nm] | Quantum Yield [1, 3] | λem [1, 4] [nm] | other results
Nc1c(-c2ccc3ccccc3c2)nc2cccnn12 [Compound 10ab, 2-(naphthalen-2-yl)imidazo[1,2-b]pyridazin-3-amine] | 438 | 0.04 | 543 | 
Nc1c(-c2ccc([N+](=O)[O-])cc2)nc2ccc(N3CCCCC3)cn12 [Compound 10aw, 2-(4-nitrophenyl)-6-(piperidin-1-yl)imidazo[1,2-a]pyridin-3-amine] | 390 |  |  | 
N#Cc1ccc(-c2nc3ccc(N4CCCCC4)cn3c2N)cc1 [Compound 10av, 4-(3-amino-6-(piperidin-1-yl)imidazo[1,2-a]pyridin-2-yl)benzonitrile] | 375 | 0.03 | 482 | 
CCN(CC)c1ccc(-c2nc3cc(-c4ccncc4)ccn3c2N)cc1 [Compound 10ay, 2-(4-(diethylamino)phenyl)-7-(pyridin-4-yl)imidazo[1,2-a]pyridin-3-amine] | 435 | 0.06 | 581 | 
COc1cc(-c2nc3cc([N+](=O)[O-])ccn3c2N)cc(OC)c1OC [Compound 10az, 7-nitro-2-(3,4,5-trimethoxyphenyl)imidazo[1,2-a]pyridin-3-amine] | 485 |  |  | Quantum Yield [1, 5]: 0.11; λem ([1]; 10 mm slit width): 651 nm
COc1ccc(-c2nc3cc(OC)ccn3c2N)cc1 [Compound 10at, 7-methoxy-2-(4-methoxyphenyl)imidazo[1,2-a]pyridin-3-amine] | 344 | 0.10 | 500 | 
COC(=O)c1ccn2c(N)c(-c3ccccc3)nc2c1 [Compound 10ah, methyl 3-amino-2-phenylimidazo[1,2-a]pyridine-7-carboxylate] | 394 | 0.40 | 510 | 
CCN(CC)c1ccc(-c2nc3cccnn3c2N)cc1 [Compound 10ag, 2-(4-(diethylamino)phenyl)imidazo[1,2-b]pyridazin-3-amine] | 444 | 0.06 | 572 | 
CCN(CC)c1ccc(-c2nc3cc([N+](=O)[O-])ccn3c2N)cc1 [Compound 10ba, 2-(4-(diethylamino)phenyl)-7-nitroimidazo[1,2-a]pyridin-3-amine] | 550 |  |  | fluorescence (observation in words) [1]: fluorescence intensity is low; Quantum Yield [1, 5]: 0.09; λem ([1]; 10 mm slit width): 720 nm
COc1ccc(-c2nc3ccc(-c4ccccc4)cn3c2N)cc1 [Compound 10ar, 2-(4-methoxyphenyl)-6-phenylimidazo[1,2-a]pyridin-3-amine] | 350 | 0.09 | 510 | 

More lines, main results first:

λex ([1]; measurements run with methanol) [nm] | Quantum Yield [1, 3] | λem [1, 4] [nm] | Compound | other results
361 | 0.05 | 417 | COc1cccc(-c2nc3c(nc4ccccn43)c3cc(OC)ccc23)c1 [Compound 16a, 2-methoxy-5-(3-methoxyphenyl)pyrido[2′,1′:2,3]imidazo[4,5-c]isoquinoline] | Quantum Yield [2]: 0.02; emission maxima [2]: 505 nm; excitation maxima [2]: 292 nm
453 | 0.11 | 636 | Cc1nn2c(NC(C)(C)C)c(-c3ccccc3)nc2nc1/C=C/c1ccccc1 [Compound 42, (E)-N-(tert-butyl)-2-methyl-6-phenyl-3-styrylimidazo[1,2-b][1,2,4]triazin-7-amine] | 
349 | 0.01 | 487 | COc1cc(OC)cc(-c2nc3cc(Br)ccn3c2N)c1 [Compound 10y, 7-bromo-2-(3,5-dimethoxyphenyl)imidazo[1,2-a]pyridin-3-amine] | 
343 | 0.38 | 472 | COc1cc(-c2nc3ccccn3c2N)cc(OC)c1OC [Compound 10c, 2-(3,4,5-trimethoxyphenyl)imidazo[1,2-a]pyridin-3-amine] | 
389 | 0.01 | 442 | c1ccc2cc(-c3nc4c(nc5ccccn54)c4ccc5ccccc5c34)ccc2c1 [Compound 16e, 7-(naphthalen-2-yl)benzo[h]pyrido[2′,1′:2,3]imidazo[4,5-c]isoquinoline] | 
304 |  |  | Nc1c(-c2ccc([N+](=O)[O-])cc2)nc2ccccn12 [Compound 10k, 2-(4-nitrophenyl)imidazo[1,2-a]pyridin-3-amine] | fluorescence (observation in words) [1]: did not show any observable fluorescence intensity
371 | 0.02 | 553 | COc1cc(OC)cc(-c2nc3ncccn3c2N)c1 [Compound 10r, 2-(3,5-dimethoxyphenyl)imidazo[1,2-a]pyrimidin-3-amine] | 
339 | 0.40 | 474 | Nc1c(-c2cccc(Oc3ccccc3)c2)nc2ccccn12 [Compound 10n, 2-(3-phenoxyphenyl)imidazo[1,2-a]pyridin-3-amine] | 
506 | 0.10 | 589 | COc1cc(/C=C/c2nc3nc(-c4cc(OC)cc(OC)c4)c(/N=C/c4cc(OC)cc(OC)c4)n3nc2C)cc(OC)c1 [Compound 62, (E)-1-(3,5-dimethoxyphenyl)-N-(6-(3,5-dimethoxyphenyl)-3-((E)-3,5-dimethoxystyryl)-2-methylimidazo[1,2-b][1,2,4]triazin-7-yl)methanimine] | 
349 | 0.20 | 478 | Cn1cccc1-c1nc2ccccn2c1N [Compound 10o, 2-(1-methyl-1H-pyrrol-2-yl)imidazo[1,2-a]pyridin-3-amine] | 
498 | 0.24 | 636 | Cc1nn2c(NCc3ccccc3)c(-c3ccccc3)nc2nc1/C=C/c1ccccc1 [Compound 74, (E)-N-benzyl-2-methyl-6-phenyl-3-styrylimidazo[1,2-b][1,2,4]triazin-7-amine] | 
499 | 0.24 | 639 | COc1ccc(/C=C/c2nc3nc(-c4ccc(OC)cc4)c(NCc4ccccc4)n3nc2C)cc1 [Compound 76, (E)-N-benzyl-6-(4-methoxyphenyl)-3-(4-methoxystyryl)-2-methylimidazo[1,2-b][1,2,4]triazin-7-amine] | 
340 | 0.39 | 472 | COc1ccc(-c2nc3ccccn3c2N)cc1 [Compound 10g, 2-(4-methoxyphenyl)imidazo[1,2-a]pyridin-3-amine] | 
365 | 0.01 | 422 | COc1cc(OC)c2c(-c3ccccc3)nc3c(nc4ccccn43)c2c1 [Compound 18a, 2,4-dimethoxy-5-phenylpyrido[2′,1′:2,3]imidazo[4,5-c]isoquinoline] | fluorescence (observation in words) [1]: not observable by the naked eye; Quantum Yield ([1]; tetracyclic indolizines of Example I): 0.01
